Assay results: patent US20220033405A1, “PHARMACEUTICAL COMPOSITION FOR PREVENTING OR TREATING CANCER CONTAINING PLK1 INHIBITOR AS ACTIVE INGREDIENT” (NATIONAL CANCER CENTER, priority 2018, published 2022)

Tests used:
[1] = target: T1, PBD domain of PLK1 (PLK1-PBD protein) (Homo sapiens, UniProt P53350); assay: Compound screening by fluorescence polarization (FP) competition assay; assay type: binding; details: FITC-labeled 1010pT peptide + PLK1-PBD; about 300 with no compound added
T1 construct: a 4 μM PLK1-PBD protein
T1 sequence (P53350 367-603 limits assumed): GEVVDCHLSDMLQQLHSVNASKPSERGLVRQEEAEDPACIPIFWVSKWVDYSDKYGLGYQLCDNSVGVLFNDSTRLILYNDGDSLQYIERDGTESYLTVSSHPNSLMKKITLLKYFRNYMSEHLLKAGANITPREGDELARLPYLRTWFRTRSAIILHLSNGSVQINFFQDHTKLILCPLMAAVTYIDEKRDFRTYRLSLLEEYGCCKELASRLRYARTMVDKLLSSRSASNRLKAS
Procedure: For this purpose, a fluorescence polarization competition assay was performed by mixing a conjugate of a PBD site of PLK1 purified in a solution and a peptide (FITC-labeled 1010pT (GVLSpTLI-NH2)) to which FITC fluorescence was bound with a low molecular weight compound to be screened.
More specifically, after a reaction was performed at room temperature for 30 minutes by preparing a 4 μM PLK1-PBD protein, a 10 nM peptide (FITC-labeled 1010pT (GVLSpTLI-NH2)), and a 20 μl candidate compound at each concentration and putting the respective components into a black 96-well plate for mixing, fluorescence polarization (mp) values were measured using Infinite F200 Pro (TECAN Group Ltd, Switzerland). An average value was derived by performing this experiment three times by the same method, and the excitation wavelength and the emission wavelength were set at 485 nm and 535 nm, respectively.

[2] = target: T2, PBD of PLK1 (GST-tagged target protein) (Homo sapiens, UniProt P53350); assay: IC50 measurement by FP assay; assay type: binding; details: FITC-labeled 1010pT peptide
T2 construct: made in house
T2 sequence (P53350 367-603 limits assumed): as above
Procedure: The IC50 of the compound was intended to be analyzed by performing the FP assay shown in Example 1 on the compound and the hit compound discovered by the primary and secondary compound screening and various derivatives thereof. For this purpose, a target protein to which GST-tag was bound was isolated using a GST resin, and 15 mg/ml of the pure target protein to which GST-tag was bound was obtained by finally performing gel filtration. The target protein was diluted with a reaction buffer and prepared at each of concentrations of 12 uM, 3 uM, and 1.5 uM, and an FITC-bound peptide (FITC-labeled 1010pT (GVLS-pT-LI-NH2)) stored in a brown tube was diluted with a reaction buffer and prepared at a concentration of 30 nM. Further, the compound at a concentration of 100 mM was diluted with a reaction buffer and prepared at each of 160.0 uM, 80.0 uM, 40.0 uM, 20.0 uM, 10.0 uM, 5.0 uM, 2.5 uM, 1.25 uM, 0.625 uM, 0.3125 uM, 0.15625 uM, and 0.0 uM. […] When the reaction was completed, the fluorescence polarization value was measured using Infinite F200 Pro (TECAN Group Ltd, Switzerland) after setting the excitation wavelength and the emission wavelength to 485 nm and 535 nm, respectively, and setting the G-Factor to 1.077. […] Binding curves were analyzed using Graphpad Prism (GraphPad Software, San Diego, Calif., USA).

HepG2 cells = assay: Cell viability after treatment (Hoechst 33342); assay type: cell-based; details: HepG2, various concentrations, two treatments 48 hours apart
Procedure: HepG2 cells, a hepatocellular carcinoma cell line, were plated with 4 to 6 replications at each hit compound concentration in a 96-well microtiter plate supplemented with a culture medium. The hit compound dissolved in DMSO was added the next day according to the design of experiments, and the number of seeded cells was determined by the cell density reaching 80% on the final day of the protocol treated as a cell control. After 24 hours of cell seeding, cells were treated with hit compounds (M2 and BI2536) at various concentrations, and 48 hours after primary treatment, the medium was aspirated and then secondary treatment was performed. After 48 hours, cell nuclei were visualized by 2.5 μM Hoechst 33342 staining at 37° C. for 30 minutes, then the medium was aspirated and washed with a fresh medium. The plate was read using Cytation™ 3 (BioTek, USA), the cell viability was analyzed, and the results were presented as a relative percentage of viable cells after treatment with the hit compound compared to the control treatment.

SNU-449 = assay: Cell cycle by flow cytometry, phospho-histone H3 (Ser10) staining; assay type: cell-based; details: M2 20, 40, 80 μM, BI2536 20 nM
Procedure: Flow cytometry equipment was used to confirm the effect on the cell cycle in the case of treatment with Compound 2 (M2). SNU-449, which is one of the liver cancer cell lines, were treated with Compound 2 (M2) at each of concentrations of 20, 40, and 80 μM after 1 day and 3 days, and were harvested after another 2 days.
Furthermore, it was intended to more specifically stain a cell population that stopped in the metaphase of cell division using a phospho-histone H3 (Ser10) antibody capable of specifically staining only the cells that stopped in the metaphase of cell division. As a positive control, cells were treated with BI2536 known as a PLK1 kinase inhibitor at 20 nM and used to observe cells in the metaphase of cell division and an increase in the G2/M phase.

PLK1 = PLK1 position in the cell (r-tubulin, PLK1, DAPI staining); assay type: cell-based
HepG2 cell = assay: Apoptosis by annexin V-FITC / PI flow cytometry; assay type: cell-based; details: HepG2, 3 days; M2 20 or 100 μM; BI2536 20 or 100 nM
Procedure: To analyze the pattern of apoptosis by exposure to M2, HepG2 cell, a hepatocellular carcinoma cell line, were treated with 20 or 100 μM M2 and 20 or 100 nM BI2536 for 3 days. The apoptosis was detected by annexin V-fluorescein isothiocyanate (annexin V-FITC) and propidium iodide (PI) staining of necrotic and apoptosis cells. First, cells were harvested and washed once with PBS. The cells were then resuspended in a 100 μl binding buffer containing 4 μl of Annexin V (BD, 51-65874X) and PI (BD, 51-66211E). The cells were stained at 37° C. for 15 minutes in the dark and then analyzed using FACSan (BD, San Jose, Calif.). Data was analyzed using CELLQuest software (BD).

[3] = tested on: HepG2 orthotopic xenograft; assay: Liver cancer orthotopic xenograft model (HepG2), 19 injections; assay type: in vivo, BalB/c nude mice; details: M2 9.1 mg/kg, BI2536 1 mg/kg, 19 injections
Procedure: 5×10^6 HepG2 cells, which are a hepatocellular carcinoma cell line, were injected into the back skin of BalB/c nude mice, and when a sufficient cancer tissue was formed about 3 weeks later, the tissue was removed, uniformly cut into 1 mm^3, and transplanted into the right median lobe of the liver by excising the abdomen within 1 cm.
The doses of 9.1 mg/kg of M2 and 1 mg/kg of BI2536 were selected based on the present inventor's previous in vitro experiments on HCC cells. Administration began 7 days after cell injection, and an equivalent amount of DMSO for the highest concentration of drug was used as a solvent control for each experiment. Each drug was injected a total of 19 injections based on 5 times/week.

[4] = tested on: SNU449 human liver cancer cells; assay: Reactivity of M2 variants in SNU449; assay type: cell-based
Procedure: (§1) To examine the ability of the compound to inhibit the growth of the breast cancer cell line, the compounds was treated at each indicated μM concentration 1 and 3 days after cell attachment, and the control was treated with a 0.1% solvent (DMSO). After another two days, the cell lines that were attached to the culture plate and grew were rinsed with 1×PBS and treated with 4% paraformaldehyde at room temperature for 10 minutes to fix the cells. Then, after cells were rinsed twice with PBS, the fixed cells were treated with a 0.5% Triton X-100 solution and reacted at room temperature for 15 minutes, rinsed another three times with PBS, and then treated with a DAPI reagent at 0.5 μg/ml, and reacted at 37° C. for 10 minutes to stain the cell nuclei. After the cells were additionally rinsed once with PBS, cells stained with DAPI were photographed by Cytation 3, and the resulting images were analyzed with Gen5 software (Biotek, USA). Meanwhile, cells that grew in a floating manner without being attached to the culture plate were treated with a 4% paraformaldehyde solution, reacted at room temperature for 10 minutes to fix the cells, and then photographed in a bright field by Cytation3, and the resulting images were analyzed by Gen5 software (Biotek, USA).
(§2) To analyze the ability to inhibit the growth of liver cancer cell lines, 6.6×10^3 HepG2 cells per well, 1×10^3 cells of each of Hep3B, SNU-475, and SNU-449 per well, and 2×10^3 SNU-387 cells per well were aliquoted in a 96-well plate, cultured in the same manner as described above, treated with Compound 2 (M2), Compound 3 (M4), Compound 4 (M21), Compound 5 (M23), and Compound 6 (M25), and then the ability to inhibit the growth of cells was analyzed.

MDA-MB-468 cells = assay: Cancer cell growth inhibition (DAPI nuclei count), breast cancer line; assay type: cell-based; details: treated 1 and 3 days after attachment
Procedure: For this purpose, experiments were performed using liver cancer, breast cancer, hematologic cancer, cervical cancer, and prostate cancer cell lines, a murine liver cancer cell line HEPA 1-6 and a breast cancer cell line MDA-MB-468 were cultured in a DMEM medium supplemented with 10% fetal bovine serum (FBS) and 1% penicillin/streptomycin, the other cell lines were cultured in a RPMI1640 medium supplemented with the same additives, and the cell lines were used in the experiment.
To examine the ability of the compound to inhibit the growth of the breast cancer cell line, the compounds was treated at each indicated μM concentration 1 and 3 days after cell attachment, and the control was treated with a 0.1% solvent (DMSO). […] After the cells were additionally rinsed once with PBS, cells stained with DAPI were photographed by Cytation 3, and the resulting images were analyzed with Gen5 software (Biotek, USA). Meanwhile, cells that grew in a floating manner without being attached to the culture plate were treated with a 4% paraformaldehyde solution, reacted at room temperature for 10 minutes to fix the cells, and then photographed in a bright field by Cytation3, and the resulting images were analyzed by Gen5 software (Biotek, USA). […]

[5] = tested on: JIMT1 human breast cancer cells; assay: Cancer cell growth inhibition, M2 variants in JIMT1; assay type: cell-based
Procedure: as §1

[6] = tested on: HepG2 human liver cancer cells; assay: Reactivity of M2 variants in HepG2; assay type: cell-based
Procedure: as §1, §2

Molecule O=C(O)c1ccc2[nH]c3nc(=O)[nH]c(=O)c-3nc2c1 [Compound 1, 2,4-Dioxo-1,2,3,4-tetrahydrobenzo[g]pteridine-7-carboxylic acid] has a fluorescence polarization value [1] of 180 mp and an IC50 [2] of roughly 25 µM.
With CC[C@@H]1C(=O)N(C)c2cnc(Nc3ccc(C(=O)NC4CCN(C)CC4)cc3OC)nc2N1C1CCCC1 [BI2536, reference compound] the cell viability (HepG2 cells) was “the relatively less the cell viability became”, the “proportion of polyploid cells” value (SNU-449) was “remarkably increased” and the “proportion of phospho-histone H3-positive cells” value (SNU-449; compared to CT) was “increase in the proportion”. For the same molecule, the chromosome segregation (PLK1) was “abnormal chromosome segregation was observed”, the “position of PLK1” value (PLK1; middle stage of cell division) was “did not seem to make a relatively large difference” and the “r-tubulin located in the centrosome (staining / position)” value (PLK1; middle stage of cell division) was “did not seem to make a relatively large difference”. For the same molecule, the apoptosis cells (HepG2 cell) was “apoptosis cells were increased”, the “apoptosis with increasing dose” value (HepG2 cell) was “apoptosis was increased in a dose-dependent manner” and the “progression of the HCC xenograft calculated by the growth inhibition index” value [3] was “suppressed the progression of the HCC xenograft”. For the same molecule, the “growth of tumor cells (macroscopic morphology, MRI)” value ([3]; 5 times/week) was “the growth of tumor cells was suppressed”.
In the case of Cc1cccc(OCCn2c3nc(=O)[nH]c(=O)c-3nc3cc(C(F)(F)F)ccc32)c1 [Compound 11, 10-[2-(3-methylphenoxy)ethyl]-7-(trifluoromethyl)-2H,3H,4H,10H-benzo[g]pteridine-2,4-dione], the “number of cancer cells” value [4] is reported as “a relatively remarkable cancer cell reduction effect did not appear”.
With O=c1nc2[nH]c3cc(Cl)ccc3nc-2c(=O)[nH]1 [Compound 3, 8-chloro-1H,2H,3H,4H-benzo[g]pteridine-2,4-dione] the number of cells (MDA-MB-468 cells) was “the number of cells was remarkably reduced in proportion to the treatment concentration”.
With Cc1cc2nc3c(=O)[nH]c(=O)nc-3n(CCC#N)c2cc1C [Compound 10, 3-{7,8-dimethyl-2,4-dioxo-2H,3H,4H,10H-benzo[g]pteridin-10-yl}propanenitrile] the “number of cancer cells” value [4] was “a relatively remarkable cancer cell reduction effect did not appear”.
For Cc1cc2nc3c(=O)[nH]c(=O)nc-3n(C)c2cc1C=O [Compound 8, 7,10-dimethyl-2,4-dioxo-2H,3H,4H,10H-benzo[g]pteridine-8-carbaldehyde], the “number of cancer cells” value [5] was “remarkably reduced the number of cancer cells in a dose-dependent manner” and the “number of cancer cells” value [4] was “the number of cancer cells was remarkably reduced in a dose-dependent manner”.
In the case of Cc1cc2nc3c(=O)[nH]c(=O)nc-3n(C[C@H](O)[C@H](O)[C@H](O)CO)c2cc1C [Compound 12, 7,8-Dimethyl-10-[(2S,3S,4R)-2,3,4,5-tetrahydroxypentyl]benzo[g]pteridine-2,4-dione], the “number of cancer cells” value [4] is reported as “a relatively remarkable cancer cell reduction effect did not appear” and the “areas of liver cancer cells” value [6] is reported as “relatively low reactivity appeared”.
In the case of Cc1cc2nc3c(=O)[nH]c(=O)nc-3n(C)c2cc1C [Compound 7, 7,8,10-trimethyl-2H,3H,4H,10H-benzo[g]pteridine-2,4-dione], the “number of cancer cells” value [5] is reported as “remarkably reduced the number of cancer cells in a dose-dependent manner”, the “number of cancer cells” value [4] is reported as “the number of cancer cells was remarkably reduced in a dose-dependent manner” and the “areas of liver cancer cells” value [6] is reported as “remarkably reduced in a dose-dependent manner”.
